From US9789102B2, “H3 receptor antagonist for use in the treatment of alzheimer's disease” (SANOFI, priority 2012, dated 2017)

Columns and labels:
[1] = system: MIP-1α gene expression; assay: mRNA expression of MIP-1α in hippocampus by QPCR after six months in food; assay type: in vivo, THY-Tau22 mice
Description: 2-(Cyclohexylmethyl)-N-{2-[(2S)-1-methylpyrrolidin-2-yl]ethyl}-1,2,3,4-tetrahydroisoquinoline-7-sulfonamide difumarate monohydrate was administrated as a supplement in food at doses of 0.00034%, 0.0034% and 0.034% for six months in THY-Tau22 and wild type mice as follows: • Tg Veh (n=17) • Tg Active Ingredient—0.034% (n=17) • Tg Active Ingredient—0.0034% (n=17) • Tg Active Ingredient—0.00034% (n=17) • WT Veh (n=17) • WT Active Ingredient—0.034% (n=17) • WT Active Ingredient—0.0034% (n=17) • WT Active Ingredient—0.00034% (n=17) • WT groups treated with Active Ingredient are not used in the biochemical and histological studies.
1. […] To assess the quality and concentration of the total RNA, 1 μl was analyzed on an RNA LabChip (Agilent) using a 2100 Bioanalyser, (Agilent Technologies). […]
2 μg of total RNA from each mouse was reverse transcribed with oligo (dT)16 and random primers using a High-Capacity cDNA Archive Kit (Applied Biosystems), following the manufacturer recommendations. […] For real time PCR, the housekeeping gene R.L37A, was amplified using a quantitect primer assay from Qiagen (QT00252266) and MIP1 alpha was amplified using the following primers (5′-[…]-3′) SEQ ID NO: 1; (5′-[…]-3′) SEQ ID NO: 2. […]

[2] = Comparison of exposures in mice (6 months in food) with those expected at steady state in AD patients; assay type: in vivo
[3] = system: tau phosphorylation at the AT-8 epitope; assay: Western blot analysis of tau phosphorylation at AT-8 epitope after six months in food; assay type: in vivo, THY-Tau22 mice; conditions: 0.0034% in food, trend only, ns

For `CN1CCC[C@H]1CCNS(=O)(=O)c1ccc2c(c1)CN(CC1CCCCC1)CC2` [2-(cyclohexylmethyl)-N-{2-[(2S)-1-methylpyrrolidin-2-yl]ethyl}-1,2,3,4-tetrahydroisoquinoline-7-sulfonamide difumarate monohydrate], the “MIP-1α gene expression in hippocampus, vs vehicle” value ([1]; 0.00034% in food) was “statistical significant decrease”, the “MIP-1α gene expression in hippocampus, vs vehicle” value ([1]; 0.0034% in food) was “statistical significant decrease” and the “corresponding human dose (safe for patients) by comparison of exposures” value ([2]; 0.00034% in food of mice) was “about 0.25 mg”. The “corresponding human dose (safe for patients) by comparison of exposures” value ([2]; 0.0034% in food of mice) was “about 2.5 mg” and the “inhibition of tau phosphorylation at the AT-8 epitope, hippocampus” value [3] was −22%.
